Legend:
rat P2X3 receptor = target: T1, rat P2X3 receptor (Rattus norvegicus, UniProt P49654); assay: P2X3/P2X2/3 FLIPR (Fluorometric Imaging Plate Reader) Assay, P2X3; type: cell-based; details: CHO-K1 cells transfected with rat P2X3; agonist α,β-meATP 1 μM; Table 1; read-out: P2X3 pKi (converted)
T1 construct: expressed in transfected cells; host or cells: CHO-K1
T1 sequence (P49654 1-397): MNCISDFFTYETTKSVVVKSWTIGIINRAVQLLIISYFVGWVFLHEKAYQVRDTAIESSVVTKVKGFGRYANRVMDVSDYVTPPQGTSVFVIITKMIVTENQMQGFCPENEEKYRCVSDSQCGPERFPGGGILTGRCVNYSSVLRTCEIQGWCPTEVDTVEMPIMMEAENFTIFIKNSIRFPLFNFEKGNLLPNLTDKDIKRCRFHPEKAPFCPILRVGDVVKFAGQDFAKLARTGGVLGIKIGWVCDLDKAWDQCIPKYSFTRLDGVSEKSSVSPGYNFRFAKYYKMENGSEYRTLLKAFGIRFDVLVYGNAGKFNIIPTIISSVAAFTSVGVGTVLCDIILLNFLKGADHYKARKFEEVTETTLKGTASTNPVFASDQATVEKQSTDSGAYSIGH
Summary of the method: (§1)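 Inhibition of α,β-meATP-induced (P2X3 1 μM; P2X2/3 5 μM) intracellular calcium rise was measured by FLIPR in transfected CHO-K1 cells with a 20 min compound preincubation. Values derive from nonlinear regression of peak responses.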

human P2X2/3 receptor = target: T2, human P2X2/3 receptor (Homo sapiens, UniProt P56373+Q9UBL9); assay: P2X3/P2X2/3 FLIPR (Fluorometric Imaging Plate Reader) Assay, P2X2/3; type: cell-based; details: CHO-K1 cells transfected with human P2X2/3; agonist α,β-meATP 5 μM; Table 1; read-out: P2X2/3 pKi (converted)
T2 construct: expressed in transfected cells; host or cells: CHO-K1
T2 sequence (Q9UBL9 1-471): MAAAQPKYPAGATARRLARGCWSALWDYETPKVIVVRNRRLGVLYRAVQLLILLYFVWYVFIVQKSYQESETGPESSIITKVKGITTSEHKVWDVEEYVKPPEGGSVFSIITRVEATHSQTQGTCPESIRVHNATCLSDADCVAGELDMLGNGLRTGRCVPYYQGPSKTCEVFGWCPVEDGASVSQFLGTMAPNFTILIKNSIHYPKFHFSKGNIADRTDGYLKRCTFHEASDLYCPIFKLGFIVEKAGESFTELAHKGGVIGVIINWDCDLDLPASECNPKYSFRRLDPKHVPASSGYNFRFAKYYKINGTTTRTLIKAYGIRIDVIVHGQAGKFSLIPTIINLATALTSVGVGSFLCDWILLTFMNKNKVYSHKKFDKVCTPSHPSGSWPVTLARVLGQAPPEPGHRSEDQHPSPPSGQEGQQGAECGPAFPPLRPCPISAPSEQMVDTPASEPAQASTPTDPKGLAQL
T2 sequence (P56373 1-397): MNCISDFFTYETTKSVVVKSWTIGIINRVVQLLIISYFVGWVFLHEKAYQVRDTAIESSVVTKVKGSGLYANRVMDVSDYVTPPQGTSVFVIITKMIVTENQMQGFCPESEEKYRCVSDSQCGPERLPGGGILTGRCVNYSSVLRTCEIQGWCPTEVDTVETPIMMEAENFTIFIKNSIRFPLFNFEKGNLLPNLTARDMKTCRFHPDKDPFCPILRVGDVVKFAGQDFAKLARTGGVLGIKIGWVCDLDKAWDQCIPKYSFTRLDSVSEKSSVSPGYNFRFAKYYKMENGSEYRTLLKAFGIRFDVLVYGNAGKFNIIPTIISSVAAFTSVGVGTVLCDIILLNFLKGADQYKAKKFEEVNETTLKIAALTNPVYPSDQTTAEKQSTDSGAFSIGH
Summary of the method: as §1

| Structure (SMILES) | Ki (rat P2X3 receptor) | Ki (human P2X2/3 receptor) |
| --- | --- | --- |
| COC[C@@H](C)NC(=O)c1cc(-c2ccc(C)cc2)cc(-n2c(C)nnc2C(C)C)c1 [Compound 32, 5-(3-Isopropyl-5-methyl-[1,2,4]triazol-4-yl)-4′-methyl-biphenyl-3-carboxylic acid ((R)-2-methoxy-1-methyl-ethyl)-amide] | 427 nM | 10000 nM |
| Cc1ccc(-c2cc(C(=O)NC3CC3)cc(-n3ncnc3C(C)N(C)C)c2)cc1 (centres unmarked) [Compound 104, 5-[5-(1-Dimethylamino-ethyl)-[1,2,4]triazol-1-yl]-4′-methyl-biphenyl-3-carboxylic acid cyclopropylamide] | 7.76 nM | 407 nM |
| Cc1ccc(-c2cc(C(=O)NC(C)c3cnccn3)cc(-n3ncnc3C(C)N(C)C)c2)cc1 (centres unmarked) [Compound 61, 5-[5-(1-Dimethylamino-ethyl)-[1,2,4]triazol-1-yl]-4′-methyl-biphenyl-3-carboxylic acid (1-pyrazin-2-yl-ethyl)-amide] | 5.25 nM | 51.3 nM |
| COc1nnc(C(C)C)n1-c1cc(C(=O)NCc2cnc(C)cn2)cc(-c2ccc(C)cc2)c1 [Compound 138, 5-(3-Isopropyl-5-methoxy-[1,2,4]triazol-4-yl)-4′-methyl-biphenyl-3-carboxylic acid (5-methyl-pyrazin-2-ylmethyl)-amide] | 724 nM | 4170 nM |
| Cc1cnc(CNC(=O)c2cc(-c3ccc(Cl)cn3)cc(-n3ncnc3C(C)(C)C)c2)cn1 [Compound 84, 3-(5-tert-Butyl-[1,2,4]triazol-1-yl)-5-(5-chloro-pyridin-2-yl)-N-(5-methyl-pyrazin-2-ylmethyl)-benzamide] | 14.1 nM | 427 nM |
| Cc1ccc(-c2cc(C(=O)NC(C)c3cnccn3)cc(-n3ncnc3C(C)O)c2)cc1 (centres unmarked) [Compound 49, 5-[5-(1-Hydroxy-ethyl)-[1,2,4]triazol-1-yl]-4′-methyl-biphenyl-3-carboxylic acid (1-pyrazin-2-yl-ethyl)-amide] | 5.13 nM | 282 nM |
| Cc1ccc(-c2cc(-n3ncnc3C(F)(F)F)cc(C(=O)NCc3ccc(C)nn3)c2F)nc1 [Compound 176, 2-Fluoro-N-(6-methyl-pyridazin-3-ylmethyl)-3-(5-methyl-pyridin-2-yl)-5-(5-trifluoromethyl-[1,2,4]triazol-1-yl)-benzamide] | 3.72 nM | 32.4 nM |
| COCC(C)NC(=O)c1cc(-c2ccc(C)cc2)cc(-n2cncn2)c1 (centres unmarked) [Compound 2, 4′-Methyl-5-[1,2,4]triazol-1-yl-biphenyl-3-carboxylic acid (2-methoxy-1-methyl-ethyl)-amide] | 1450 nM | 10200 nM |
| COC[C@@H](C)NC(=O)c1cc(-c2ccc(C)cc2)cc(-n2nncc2C(C)C)c1 [Compound 10, 5-(5-Isopropyl-[1,2,3]triazol-1-yl)-4′-methyl-biphenyl-3-carboxylic acid ((R)-2-methoxy-1-methyl-ethyl)-amide] | 7.41 nM | 324 nM |
| C[C@@H](CO)NC(=O)c1cc(-c2ccc(Cl)cn2)cc(-n2ncnc2C(F)(F)F)c1 [Compound 81, 3-(5-Chloro-pyridin-2-yl)-N-((S)-2-hydroxy-1-methyl-ethyl)-5-(5-trifluoromethyl-[1,2,4]triazol-1-yl)-benzamide] | 45.7 nM | 3890 nM |
| CCCc1ncnn1-c1cc(C(=O)N[C@@H](C)CO)cc(-c2ccc(C)cn2)c1 [Compound 114, N-((S)-2-Hydroxy-1-methyl-ethyl)-3-(5-methyl-pyridin-2-yl)-5-(5-propyl-[1,2,4]triazol-1-yl)-benzamide] | 4.79 nM | 2880 nM |
| Cc1ccc(-c2cc(C(=O)NCc3cnc(C)cn3)cc(-n3ncnc3C(C)(F)F)c2)nc1 [Compound 69, 3-[5-(1,1-Difluoro-ethyl)-[1,2,4]triazol-1-yl]-N-(5-methyl-pyrazin-2-ylmethyl)-5-(5-methyl-pyridin-2-yl)-benzamide] | 1.86 nM | 26.9 nM |
| COCCc1nc(C)nn1-c1cc(C(=O)N[C@@H](C)CO)cc(-c2ccc(C)cn2)c1 [Compound 155, N-((S)-2-Hydroxy-1-methyl-ethyl)-3-[5-(2-methoxy-ethyl)-3-methyl-[1,2,4]triazol-1-yl]-5-(5-methyl-pyridin-2-yl)-benzamide] | 3310 nM | 10000 nM |
| Cc1ccc(-c2cc(C(=O)N[C@@H](C)CO)cc(-n3ncnc3C(C)(F)F)c2)nc1 [Compound 71, 3-[5-(1,1-Difluoro-ethyl)-[1,2,4]triazol-1-yl]-N-((S)-2-hydroxy-1-methyl-ethyl)-5-(5-methyl-pyridin-2-yl)-benzamide] | 2.82 nM | 2290 nM |
| Cc1ccc(-c2cc(C(=O)NCc3cnc(C)cn3)cc(-n3ncnc3C3CCC3)c2)nc1 [Compound 86, 3-(5-Cyclobutyl-[1,2,4]triazol-1-yl)-N-(5-methyl-pyrazin-2-ylmethyl)-5-(5-methyl-pyridin-2-yl)-benzamide] | 2.29 nM | 33.1 nM |
| Cc1ccc(-c2cc(C(=O)NC(C)c3cnccn3)cc(-n3ncnc3C(C)(C)C)c2)nc1 (centres unmarked) [Compound 95, 3-(5-tert-Butyl-[1,2,4]triazol-1-yl)-5-(5-methyl-pyridin-2-yl)-N-(1-pyrazin-2-yl-ethyl)-benzamide] | 5.37 nM | 117 nM |
| Cc1ccc(-c2cc(C(=O)NCc3ccc(=O)n(C)c3)cc(-n3ncnc3C(C)C)c2)nc1 [Compound 153, 3-(5-Isopropyl-[1,2,4]triazol-1-yl)-N-(1-methyl-6-oxo-1,6-dihydro-pyridin-3-ylmethyl)-5-(5-methyl-pyridin-2-yl)-benzamide] | 26.9 nM | 4370 nM |
| COCCc1ncnn1-c1cc(C(=O)N[C@@H](C)CO)cc(-c2ccc(C)cn2)c1 [Compound 148, N-((S)-2-Hydroxy-1-methyl-ethyl)-3-[5-(2-methoxy-ethyl)-1-[1,2,4]triazol-1-yl]-5-(5-methyl-pyridin-2-yl)-benzamide] | 60.3 nM | 10000 nM |
| Cc1ccc(-c2cc(C(=O)N[C@@H](C)CO)cc(-n3ncnc3C)c2)nc1 [Compound 102, N-((S)-2-Hydroxy-1-methyl-ethyl)-3-(5-methyl-pyridin-2-yl)-5-(5-methyl-[1,2,4]triazol-1-yl)-benzamide] | 263 nM | 10000 nM |
| Cc1ccc(-c2cc(C(=O)NC(C)c3cnccn3)cc(-n3ncnc3CC(C)C)c2)nc1 (centres unmarked) [Compound 118, 3-(5-Isobutyl-[1,2,4]triazol-1-yl)-5-(5-methyl-pyridin-2-yl)-N-(1-pyrazin-2-yl-ethyl)-benzamide] | 4.27 nM | 35.5 nM |
| Cc1ccc(-c2cc(C(=O)NCc3cnc(C)cn3)cc(-n3ncnc3C(C)C)c2)c(F)c1 [Compound 135, 2′-Fluoro-5-(5-isopropyl-[1,2,4]triazol-1-yl)-4′-methyl-biphenyl-3-carboxylic acid (5-methyl-pyrazin-2-ylmethyl)-amide] | 4.79 nM | 25.7 nM |
| C[C@@H](CO)NC(=O)c1cc(-c2ccc(Cl)cn2)cc(-n2ncnc2C(F)F)c1 [Compound 78, 3-(5-Chloro-pyridin-2-yl)-5-(5-difluoromethyl-[1,2,4]triazol-1-yl)-N-((S)-2-hydroxy-1-methyl-ethyl)-benzamide] | 75.9 nM | 8710 nM |
